Test results as given in patent US11331299B2, “Medicinal use of serrulatane diterpenes” (The University of Sydney, priority 2016, dated 2022).
Read-outs that look alike come from different tables or passages of the source.

Tested on: 280 human cancer cell lines
Experiment: OncoPanel cell proliferation assay (10-day)
Assay type: cell-based
Settings: Homo sapiens; for GI50: read-out: Cell Count GI50; for IC50: read-out: Cell Count IC50; for EC50: read-out: Cell Count EC50
[1] = KHOS-240S, Soft Tissue - Osteosarcoma
[2] = ME-180, ME-180, Female GU - Ovary
[3] = MG-63, MG-63, Soft Tissue - Osteosarcoma
[4] = MHH-PREB-1, MHH-PREB-1, Leukemia
[5] = MIA PaCa-2, Mia PaCa-2, Pancreas
[6] = MS751, MS751, Female GU - Ovary
[7] = Malme-3M, MALME3M, Skin (Melanoma)

SMILES: CC(C)=CCC[C@@H]1C(O)Oc2c(C)cc(O)c3c2[C@H]1CC[C@H]3C (some centres unmarked) [Compound 2, 5,18-epoxyserrulat-14-en-8,18-diol]
- GI50 [1]: 4.58 µM
- IC50 [1]: 4.59 µM
- EC50 (KLE, Female GU - Uterus): 26.3 µM
- GI50 (KLE, Female GU - Uterus): 20.5 µM
- IC50 (KLE, Female GU - Uterus): 26.3 µM
- EC50 (KPL-1, KPL-1, Breast): 4.7 µM
- GI50 (KPL-1, KPL-1, Breast): 4.7 µM
- IC50 (KPL-1, KPL-1, Breast): 4.73 µM
- EC50 (KU812, KU812, Leukemia): 6.52 µM
- GI50 (KU812, KU812, Leukemia): 5.66 µM
- IC50 (KU812, KU812, Leukemia): 6.52 µM
- EC50 (L-428, L-428, Lymphoma): 8.87 µM
- GI50 (L-428, L-428, Lymphoma): 8.83 µM
- IC50 (L-428, L-428, Lymphoma): 8.87 µM
- EC50 (LNCaP, Prostate): 0.86 µM
- GI50 (LNCaP, Prostate): 0.28 µM
- IC50 (LNCaP, Prostate): 0.86 µM
- EC50 (LS-123, LS123, Colon): 6.57 µM
- GI50 (LS-123, LS123, Colon): 13.4 µM
- IC50 (LS-123, LS123, Colon): 18.4 µM
- EC50 (LS-411N, LS411N, Colon): 23.9 µM
- GI50 (LS-411N, LS411N, Colon): 23.4 µM
- IC50 (LS-411N, LS411N, Colon): 23.9 µM
- EC50 (LS-1034, LS1034, Colon): 12.7 µM
- GI50 (LS-1034, LS1034, Colon): 12 µM
- IC50 (LS-1034, LS1034, Colon): 12.7 µM
- EC50 (M059J, CNS - Glioma): 9.98 µM
- GI50 (M059J, CNS - Glioma): 14.2 µM
- IC50 (M059J, CNS - Glioma): 15.8 µM
- EC50 (MC116, MC116, Lymphoma): 13.8 µM
- GI50 (MC116, MC116, Lymphoma): 13.8 µM
- IC50 (MC116, MC116, Lymphoma): 13.8 µM
- EC50 (MC-IXC, CNS - Neuroblastoma): 16.9 µM
- GI50 (MC-IXC, CNS - Neuroblastoma): 16.9 µM
- IC50 (MC-IXC, CNS - Neuroblastoma): 16.9 µM
- EC50 (MCF7, MCF7, Breast): 10.4 µM
- GI50 (MCF7, MCF7, Breast): 9.96 µM
- IC50 (MCF7, MCF7, Breast): 10.4 µM
- EC50 (MDA-MB-231, MDA MB 231, Breast): 4.39 µM
- GI50 (MDA-MB-231, MDA MB 231, Breast): 4.36 µM
- IC50 (MDA-MB-231, MDA MB 231, Breast): 4.39 µM
- EC50 (MDA-MB-436, MDA-MB-436, Breast): 9.72 µM
- GI50 (MDA-MB-436, MDA-MB-436, Breast): 9.73 µM
- IC50 (MDA-MB-436, MDA-MB-436, Breast): 9.77 µM
- EC50 (MDA-MB-453, MDA MB 453, Breast): 3.68 µM
- GI50 (MDA-MB-453, MDA MB 453, Breast): 3.65 µM
- IC50 (MDA-MB-453, MDA MB 453, Breast): 3.69 µM
- EC50 (MDA-MB-468, MDA MB 468, Breast): 8.07 µM
- GI50 (MDA-MB-468, MDA MB 468, Breast): 8 µM
- IC50 (MDA-MB-468, MDA MB 468, Breast): 8.08 µM
- EC50 [2]: > 30 µM
- GI50 [2]: > 30 µM
- IC50 [2]: > 30 µM
- EC50 (MEG-01, MEG01, Leukemia): 13.8 µM
- GI50 (MEG-01, MEG01, Leukemia): 13.7 µM
- IC50 (MEG-01, MEG01, Leukemia): 13.8 µM
- EC50 (MES-SA, Soft Tissue - Sarcoma): 9.26 µM
- GI50 (MES-SA, Soft Tissue - Sarcoma): 9.22 µM
- IC50 (MES-SA, Soft Tissue - Sarcoma): 9.26 µM
- EC50 [3]: > 30 µM
- GI50 [3]: > 30 µM
- IC50 [3]: > 30 µM
- EC50 [4]: 7.85 µM
- GI50 [4]: 7.85 µM
- IC50 [4]: 7.85 µM
- EC50 [5]: 16.3 µM
- GI50 [5]: 16.2 µM
- IC50 [5]: 16.3 µM
- EC50 (MOLT-3, MOLT-3, Leukemia): 1.27 µM
- GI50 (MOLT-3, MOLT-3, Leukemia): 1.26 µM
- IC50 (MOLT-3, MOLT-3, Leukemia): 1.27 µM
- EC50 (MOLT-16, MOLT-16, Leukemia): 13.3 µM
- GI50 (MOLT-16, MOLT-16, Leukemia): 13.3 µM
- IC50 (MOLT-16, MOLT-16, Leukemia): 13.3 µM
- EC50 [6]: 7.55 µM
- GI50 [6]: 8.72 µM
- IC50 [6]: 8.78 µM
- EC50 (MT-3, Colon): 16.9 µM
- GI50 (MT-3, Colon): 16.8 µM
- IC50 (MT-3, Colon): 16.9 µM
- EC50 (MV4-11, MV-4-11, Leukemia): 8.56 µM
- GI50 (MV4-11, MV-4-11, Leukemia): 8.52 µM
- IC50 (MV4-11, MV-4-11, Leukemia): 8.56 µM
- EC50 (MX1, Leukemia): 10.8 µM
- GI50 (MX1, Leukemia): 10.8 µM
- IC50 (MX1, Leukemia): 10.8 µM
- EC50 [7]: 19.8 µM
- GI50 [7]: 17.3 µM
- IC50 [7]: 19.8 µM
- EC50 (MeWo, Skin (Melanoma)): 9.45 µM
- GI50 (MeWo, Skin (Melanoma)): 9.91 µM
- IC50 (MeWo, Skin (Melanoma)): 9.97 µM
- EC50 (NALM-6, NALM-6, Leukemia): 1.67 µM
- GI50 (NALM-6, NALM-6, Leukemia): 1.68 µM
- IC50 (NALM-6, NALM-6, Leukemia): 1.68 µM
- EC50 (NAMALWA, Lymphoma): 5.71 µM
- GI50 (NAMALWA, Lymphoma): 5.7 µM
- IC50 (NAMALWA, Lymphoma): 5.71 µM
- EC50 (NCI-H69, NCI-H69, Lung - SCLC): 16.2 µM
- GI50 (NCI-H69, NCI-H69, Lung - SCLC): 14.9 µM
- IC50 (NCI-H69, NCI-H69, Lung - SCLC): 16.2 µM
